According to US9463188B2, “Osteopontin production inhibitor containing dictyopyrone derivative or dihydrodictyopyrone derivative as active ingredient” (TOHOKU UNIVERSITY, priority 2013, dated 2016):

Experiments:
A549/OPNluc cells = assay: WST assay (cell growth inhibition); format: cell-based; conditions: Homo sapiens, 48±4 hours, WST-1, read-out: IC50 (concentration for 50% inhibition of cell growth)
Description: (§1) A reporter vector pOPN1-luc obtained by inserting a human OPN promoter sequence (−765 to 23) into the multiple cloning site of pGL-3 basic vector (Promega) expresses luciferase when transfected into animal cells. This pOPN1-luc was transfected into a human non-small cell lung cancer-derived cell line A549 together with pPUR (Clontech) that expresses a puromycin resistance gene (puromycin-N-acetyl-transferase gene), and cells that could grow in a puromycin-supplemented medium and expressed luciferase were selected. The selected cells were named A549/OPNluc cells and used for observation of luciferase expression inhibitory effect under control of OPN promoter, as described later.
(§2) A test compound was added to a culture liquid containing A549/OPNluc cells to observe its influence on the amount of luciferase expressed in the cells. Here, it can be considered that when the test compound has cytotoxity or cell growth-suppressing effect, the total expression level of luciferase is reduced due to a reduction in the number of living cells that depends on the concentration of the test compound, and therefore the luciferase expression inhibitory effect of the test compound under control of OPN promoter cannot be properly evaluated. For this reason, WST assay for quantification of cell proliferation ability or cell viability by colorimetric measurement was first performed to determine IC50 (concentration for 50% inhibition of cell growth) of the test compound for cell growth. Then, luciferase activity measurement was performed to determine EC50 (concentration for 50% inhibition of luciferase expression) of the test compound for luciferase expression under control of OPN promoter.
A549/OPNluc cells were suspended in DMEM medium containing 10% fetal calf serum (FCS) and 1% penicillin/streptomycin (P/S) at 3×10^4 cells/mL to obtain a cell suspension, and 100 μL of the cell suspension was dispensed into each well of a 96-well plate. In order to perform the assay in triplicate, 3 wells were prepared for a control group and 3 wells were prepared for each test compound-treated group at each concentration. After the dispensing, the 96-well plate was incubated in a CO2 incubator (at 37° C. and 5% CO2) for 24±4 hours.
The test compound was dissolved in dimethylsulfoxide (DMSO) to obtain a 50 mmol/L solution, and the test compound solution was stored at −80° C. The test compound solution was diluted with DMSO in 2-fold dilution series (usually, in the range of 0.31 mmol/L to 20 mmol/L) to prepare test compound solutions whose concentration varied by two fold for WST assay.
Only DMSO (control) or the diluted test compound (sample) solution was dispensed in an amount of 0.5 μL into each well containing the cell suspension (200-fold dilution). The solution in each well was mixed with a vortex mixer, and then the 96-well plate was incubated in a CO2 incubator (at 37° C. and 5% CO2) for 48±4 hours. Then, 10 μL of Premix WST-1 Reagent (TAKARA BIO INC.) was added to each well. The solution in each well was mixed with a vortex mixer, and then the 96-well plate was incubated at 37° C. and 5% CO2. After 60 minutes or 120 minutes, absorbance values (450 nm) were measured using a microplate reader (Bio-Rad; Benchmark or Thermo Scientific; Varioskan Flash).
(§3) The absorbance values of the control wells and the absorbance values of the sample wells at each concentration were input into an Excel file to determine the percentages of absorbance values of the sample wells at each concentration with respect to the average of absorbance values of the control wells. From the determined values, a fitted curve was determined by the method of least squares to calculate IC50.

[1] = test system: human OPN promoter (pOPN1-luc) in A549/OPNluc cells; assay: Luciferase assay: luciferase expression under control of OPN promoter; format: cell-based; conditions: for EC50: Homo sapiens, 48±4 hours, read-out: EC50 (concentration for 50% inhibition of luciferase expression under control of OPN promoter); for EC50 value relative to respective IC50 value: EC50 luciferase assay vs IC50 WST assay
Description: as §1, §2
The same steps as in the above-described WST assay were performed in which only DMSO (control) or the diluted test compound (sample) solution was added in an amount of 0.5 μL to each well containing the cell suspension to achieve 200-fold dilution, and the solution in each well was mixed with a vortex mixer, and the 96-well plate was incubated in a CO2 incubator (at 37° C. and 5% CO2) for 48±4 hours.
A luciferase reagent was prepared by dissolving Luciferase Assay Substrate (hereinafter, referred to as “LAS”) supplied in Luciferase Assay Systems (Promega: Cat# E1500) with Luciferase Assay Buffer (LAB). 5× Cell Culture Lysis Reagent (hereinafter, referred to as “CCLR”) was diluted with water 5-fold to prepare 1×CCLR.
After the incubation for 48±4 hours, the medium in each well was completely removed, and 50 μL of 1×CCLR was dispensed into each well. The 96-well plate was allowed to stand at room temperature for 30 minutes, and then 1×CCLR in each well was used as an assay sample. The luciferase reagent of 100 μL was placed in a tube for chemiluminescence measurement, and 20 μL of the assay sample was added to the tube and mixed with the luciferase reagent to measure chemiluminescence (Relative Luminescence Intensity: RLU) using Tuner Design Luminometer 20/20 (Promega).
as §3, with “RLU” for “absorbance”, “file, and” for “file to determine”, “wells were determined.” for “wells.”, “these” for “the determined”, “EC50.” for “IC50.”

SMILES	IC50 (A549/OPNluc cells)	EC50 [1]	EC50 value relative to respective IC50 value [1]
CCCCCCCCCCCC(=O)[C@H]1C(=O)O[C@H](C)C[C@@H]1C [Chemical formula 13]	> 50 µM	> 50 µM	
CCCCCCCCCCCC(O)[C@H]1C(=O)O[C@@H](C)C[C@@H]1C (stereo partly drawn) [Chemical formula 15]	88 µM	43.4 µM	½
CCCCCCCCCCCC(=O)C1=C(C)CC(C)(C)OC1=O [Chemical formula 1]	129 µM	24.4 µM	½
CCCCCCCCCCCC(=O)C1=C(C)C[C@@H](C)OC1=O [Chemical formula 8]	111 µM	55 µM	½
CCCCCCCCCCCC(=O)[C@@H]1C(=O)N[C@@H](C)C[C@H]1C [Chemical formula 4]	42.5 µM	19.7 µM	½
CCCCCCCCCCCC(=O)C1=C(C)C[C@H](C)OC1=O [Chemical formula 5]	129 µM	63 µM	
CCCCCCCCCCCC(=O)C1=C(C)C[C@H](C)NC1=O [Chemical formula 2]	59.1 µM	29.5 µM	½
CCCCCCCCCCCC(=O)[C@@H]1C(=O)O[C@@H](C)C[C@H]1C [Chemical formula 12]	> 50 µM	> 50 µM	
CCCC(=O)C1=C(C)C[C@H](C)OC1=O [Chemical formula 6]	> 100 µM	> 100 µM	
CCCCCCCC(=O)C1=C(C)C[C@H](C)NC1=O [Chemical formula 11, (S)-5,6-dihydro-4,6-dimethyl-3-octanoyl-1H-pyridin-2-one]	> 100 µM	> 100 µM	
CCCC(=O)C1=C(C)C[C@H](C)NC1=O [Chemical formula 10, (S)-3-butanoyl-5,6-dihydro-4,6-dimethyl-1H-pyridin-2-one]	110 µM	63 µM	
CCCCCCCC(=O)C1=C(C)C[C@H](C)OC1=O [Chemical formula 7]	> 100 µM	> 100 µM	
CCCCCCCCCCCC(=O)[C@H]1C(=O)OC(C)(C)C[C@@H]1C [Chemical formula 14]	54.1 µM	29.5 µM	
COC(=O)CCCCCCC(=O)C1=C(C)C[C@H](C)OC1=O [Chemical formula 9, methyl (S)-8-(4,6-dimethyl-2-oxo-5,6-dihydro-2H-pyran-3-yl)-8-Oxooctanoate]	> 100 µM	> 100 µM	
CCCCCCCCCCC/C(OC(C)=O)=C1\C(=O)O[C@@H](C)C[C@@H]1C [Chemical formula 16]	> 100 µM	31.1 µM	½
